In US11357786B2, “Synthetic disugar hydrocarbons as natural analogs to control microbial behaviors” (Syracuse University, priority 2014, dated 2022):

Assays:
Format in all cases: cell-based, Pseudomonas aeruginosa
[1] = tested on: nonswarming P. aeruginosa mutant rhlA; test: Swarming motility of nonswarming rhlA mutant on soft agar (reactivation / agonist assay); conditions: for Swarming reactivation of rhlA mutant: 110 μM in soft agar
Excerpt: Using nonswarming mutant to screen for swarming agonists and wild type P. aeruginosa for swarming antagonists. The transposon mutant, rhlA (genotype, rhlA-E08:ISphoA/hah)39 of P. aeruginosa (PAO1), that impairs the gene that is responsible for synthesizing rhamnolipids is completely incapable of a swarming motility. […] Based on this inference, a rhlA mutant was used in a swarming experiment to screen the saccharide-hydrocarbons for agonists that can reactivate the swarming motility of rhlA.
(§1) Swarm agar plates were based on M8 medium supplemented with 0.2% glucose, 0.5% casamino acid, 1 mM MgSO4 and […]. 17 For each set of experiment all the swarm plates were poured from same batch of agar and allowed to dry for 1 h before inoculation of bacteria. Bacterial culture (3 μl) (wild type PAO1 or rhlA mutant) with OD600 between […] was inoculated on the solidified agar plates. Swarm agar plates were incubated at 37° C. for 12 h and then incubated for additional 12 h at room temp. Chronological images of swarm plates were taken using a camera. To measure swarming area, sizes of the petridish in all swarming images were adjusted to a pre-assigned diameter and images were printed on copying paper (Xerox-business 4200). Weight of a 1 cm^2 copy paper square was roughly ˜8.0 mg. swarming images on the copy paper were cut and weighed, the swarm area was calculated by dividing the weight of image by weight of 1 cm^2 square (8 mg).
(§2) Swarm agar plates were made using M8 medium supplemented with 0.2% glucose, 0.5% casamino acid, 1 mM MgSO4 and solidified with 0.5% Bacto agar. 24 Bacterial culture with OD600 between 0.4 to 0.6 was inoculated as 3 μl aliquots. Swarm agar plates were incubated at 37° C. for 12 h and then incubated for additional 12 h at rt. For each set of experiment all the swarm plates were poured from same batch of agar and allowed to dry for 1 h before inoculation of bacteria.

[2] = tested on: wild type PAO1; test: Swarming motility of wild type PAO1 on soft agar (antagonist assay); conditions: for Swarming of wild type PAO1: 110 μM in soft agar; for Effect on PAO1 swarming: concentration not given
Procedure: In contrast, the wild type P. aeruginosa produces the rhamnolipids and is capable of swarming on soft agar gel (˜0.5% agar). […] We note that saccharide hydrocarbons may also promote the swarming motility, but such promotions are less unambiguous than the inhibition for wild type PAO1. Such promotion will be unambiguous in the agonist assay using the nonswarming mutant rhlA.
as §1, §2

[3] = tested on: PAO1 biofilm; test: Crystal violet based static biofilm inhibition assay, DSHs in LB media (Examples 2 and 4); conditions: for Inhibition of PAO1 biofilm formation (surface attached): 160 μM, 24 h, LB media; for Anti-biofilm activity (biofilm inhibition): concentration not given
Procedure: The ability of DSHs was tested to inhibit Pseudomonas aeruginosa adhesion, biofilm and to disperse pre-formed biofilm. To quantify the amount of PAO1/EGFP attached on the surface of micro titer plates with or without the synthesized DSHs, fluorescence emitted by green fluorescent proteins (GFP) was quantified (see supporting info for details). Crystal violet (CV) based static biofilm assay (see supporting info) was used to screen the anti-biofilm potencies of all synthesized agents. Both surface attached (SA) (FIG. 17) and total (SA+air-liquid interface) biofilm of P. aeruginosa was quantified. […] CV assays were also used to quantify the amount of P. aeruginosa biofilm remaining after dispersion experiments (FIG. 19). Initially, all agents were screen for anti-biofilm activities (both inhibition and dispersion) at 160 μM. […] All reported biofilm inhibition results are an average of 4 identical wells.
The effect that DSHs have on the adhesion of PAO1-EGFP on polystyrene surface (microtiter plate) was also examined. PAO1-EGFP is a P. aeruginosa strain that constitutively expresses green fluorescent protein. In the adhesion assays, PAO1-EGFP was grown in microtiter plate for 24-hours in LB-media with (160 μM) or without DSHs. After 24-hours, the fluorescent signal obtained from surface adhered PAO1-EGFP was measured. Percent reduction in fluorescence was calculated by comparing fluorescent signal from PAO1-EGFP grown in LB-media with the signal from wells that had DSHs (FIG. 29A). To study the effect of DSHs on biofilm formation, Pseudomonas aeruginosa (PAO1) was grown in LB-media with (160 μM) or without DSHs at 37° C. under static conditions within wells of microtiter plates. After 24 hours, the surface attached biofilms adhering to the bottom of the wells were stained with crystal-violet dye and the biofilm was quantified by measuring absorbance at 600 nm (OD600). […] Similar to inhibition, the surface attached biofilm after dispersion with DSHs was quantified with crystal-violet staining and absorbance measurement at 600 nm, except that for dispersion, biofilm was first grown for 1 day in just LB-media without any DSHs after which DSHs were added and plates were incubated for additional 24 hours followed by quantification (FIG. 29B).
Crystal violet (CV) based-biofilm inhibition assay. Inhibitory effect of all synthesized disaccharide hydrocarbons on biofilm formation of Pseudomonas aeruginosa (wild type PAO1) was determined by static biofilm inhibition assay using crystal violet staining. Overnight culture of PAO1 were sub cultured in LB media to OD600 of 0.01 and further the OD600 was allowed to reach ˜0.1. The bacterial sub-culture (200 μL) was then added into the wells of a microtiter plate. Predetermined concentrations of DSHs were added to respective wells containing sub culture by pipetting out fixed volume of sterile aqueous stock solutions (except DβL (7), SPOT, (15) and 2-ODαC (17), which were introduced as stocks prepared in H2O […] and EtOH (90:10) solutions). The microtiter plates were then wrapped in GLAD Press n′ Seal® (saran wrap) and further incubated under stationary conditions for 24 h at 37° C. After 24 h incubation, the culture media was discarded by pipetting carefully (without disrupting biofilm), the plate was then washed once with sterile water (200 μL) and allowed to dry at 37° C. for ˜30 mins. Microtiter plates were then stained with 0.1% aqueous solution of crystal violet (CV) (200 μL) at rt for ˜30 mins. Following this, the CV stain was removed and plate was again washed with sterile water (200 μL). Resultant CV stain in the well was then solubilized by adding 100 μL of 30% AcOH solution (in water) and mixing gently by pipetting.

[4] = tested on: PAO1-EGFP biofilm; test: Biofilm on steel coupons, fluorescence / CLSM; conditions: 160 μM, 24 h, LB media
Procedure: A crystal violet (CV) assay was used to measure the amount of PAO1 biofilm formed after 24 h of bacterial inoculation. The fluorescence of green fluorescent proteins (GFP) expressed by PAO1-GFP was measured to directly quantify bacterial adhesion on polystyrene black 96 well plates with and without maltose derivatives after 2 h of bacterial inoculation. To evaluate the potential of maltose derivatives as both anti-biofilm and anti-adhesion agents, they were compared to a brominated furanone (BF8) known to inhibit biofilm formation, and two generic surfactants, sodium dodecyl sulfate (SDS) and tetra (ethylene glycol) monododecyl ether (C12EG4OH). […] P. aeruginosa strain PAO1-EGFP that constitutively producing green fluorescent protein was allowed to form biofilm on sterile steel coupons.
Confocal laser scanning microscopy (CLSM) based biofilm inhibition assay. Steel coupons (˜1×1 cm) were washed with EtOH, dried under a stream of nitrogen and then sterilized in an autoclave. Overnight culture of PAO1/EGFP (OD600 ˜1.0) grown in LB media (supplemented with 300 μg/mL of carbenicillin), was sub-cultured to OD600˜0.01 and then the OD600 was allowed to reach ˜0.1. Aliquot (600 μL) of PAO1/EGFP subculture OD600˜0.1 was then added into the wells of a 24-well micro titer plate. DSHs were then introduced into the assigned wells to reach a resultant concentration of 160 μM. Bacterial sub-culture with no agent served as positive control. Sterile steel coupons were then placed into the wells and the plates were wrapped with saran wrap and incubated for 24 h at 37° C. under static conditions. After 24 hours, the steel coupons were removed and washed by dipping in PBS buffer (2 washes) and the dried by holding with a forcep and gently dabbing the edge on a bleached paper (KIM wipes). The dried steel coupons were viewed under confocal laser scanning microscope (CLSM). Images were taken at 4 random locations on each steel coupons. Z-stacked images were also taken to determine the relative thickness of the biofilm.

[5] = 85 μM in soft agar (0.5%), 24 h

CCCCCCCCCCCCO[C@@H]1O[C@H](CO)[C@@H](O[C@@H]2O[C@H](CO)[C@H](O)[C@H](O)[C@H]2O)[C@H](O)[C@H]1O [DβL (7), dodecyl-β-lactoside]
Swarming reactivation of rhlA mutant ([1]; 24 h): incapable of reactivating the swarming
Swarming of wild type PAO1 ([2]; 24 h): did not significantly affect the swarm pattern
Inhibition of PAO1 biofilm formation (surface attached) [3]: insignificant biofilm inhibition
Inhibition of PAO1 biofilm formation (surface attached) ([3]; listed as 7: DβL, 160 µM): severely compromised the anti-biofilm activity
Anti-biofilm activity (biofilm inhibition) [3]: low activities
PAO1-EGFP biofilm on stainless steel coupons (CLSM) [4]: bacterial surface coverage comparable to that of control

CCCCCCCCCCCCO[C@@H]1O[C@H](CO)[C@@H](O[C@@H]2O[C@H](CO)[C@@H](O)[C@H](O)[C@H]2O)[C@H](O)[C@H]1O [DβC (4), dodecyl-β-cellobioside]
Concentration at which tendril formation was induced in rhlA mutant [1]: ~56 µM
Concentration of first inhibition of rhlA swarming [1]: around 50 μM
Swarming motility of rhlA mutant ([1]; 40 μM): activated the swarming motility of rhlA mutant
Swarming motility of rhlA mutant [1, 5]: strong reactivation of the swarming motility in rhlA mutant
Swarming reactivation of rhlA mutant ([1]; 24 h, listed as 4: DbC): fully restores swarming with fine tendrils
Swarming reactivation of rhlA mutant ([1]; 24 h, listed as 4: DβC): fully restored the swarming of rhlA
Concentration of another activation of rhlA swarming ([1]; after first inhibition): about 160 μM
Concentration of activity reversal for swarming promotion of rhlA mutant (transition concentration) ([1]; soft agar): ^a~45-56 μM
Lowest concentration that reactivates swarming of rhlA mutant ([1]; soft agar): ≤ 20 µM
Concentration of activity reversal for swarming promotion of rhlA mutant (transition concentration) ([1]; soft agar, listed as 4): 45 to 56 µM
Concentration at which tendrils were induced in PAO1 [2]: 20 µM
Swarming motility of wild type PAO1 ([2]; 20 μM): stronger inhibition than rhamnolipids
Swarming area of PAO1 smaller than control ([2]; 85 μM): ~46%
Swarming motility of wild type PAO1 ([2]; 85 μM in soft agar, 24 h): causing significant amount of tendril formation
Swarming area of wild type PAO1 ([2]; 85 μM, control ~24 cm2): ~13 cm2
Swarming of wild type PAO1 ([2]; 24 h, listed as 4: DbC): promotes tendril formation
Swarming of wild type PAO1 ([2]; 24 h, listed as 4: DβC): induced more tendril formation
Effect on PAO1 swarming [2]: induced tendril formation in the swarming pattern of PAO1
Concentration of activity reversal for swarming inhibition of PAO1 (transition concentration) ([2]; soft agar): ~20 to 30 µM
Inhibition of PAO1 biofilm formation (surface attached) ([3]; listed as 4: DβC, 160 µM): 60%
Inhibition of PAO1 biofilm formation (surface attached) ([3]; listed as DISC (4)): 62%
IC50 ([3]; Example 4, FIG. 30): ~72 µM
PAO1-EGFP biofilm on stainless steel coupons (CLSM) [4]: decreased the fluorescence signal significantly

CCCCCCCCCCO[C@@H]1O[C@H](CO)[C@@H](O[C@@H]2O[C@H](CO)[C@@H](O)[C@H](O)[C@H]2O)[C@H](O)[C@H]1O [DeβC (2), decyl-β-cellobioside]
Swarming motility of rhlA mutant [1, 5]: did not show a noticeable effect on the swarming motility
Swarming reactivation of rhlA mutant ([1]; 24 h): incapable of reactivating the swarming
Swarming motility of rhlA mutant ([1]; 160 μM in soft agar, 24 h): weak activation of rhlA swarming motility
Reactivation of swarming motility of rhlA mutant ([1]; concentration not given): activated the swarming motility of rhlA mutant
Increase of reactivated swarming ring of rhlA with respect to swarming ring of PAO1 without agents ([1]; increasing from 85 to 160 μM): 38%
Swarming motility of wild type PAO1 ([2]; 85 μM in soft agar, 24 h): did not show a noticeable effect on the swarming motility
Swarming of wild type PAO1 ([2]; 24 h): did not significantly affect the swarm pattern
Swarming motility of wild type PAO1 ([2]; 160 μM in soft agar, 24 h): weak promotion of swarming motility of wild type PAO1
Effect on PAO1 swarming [2]: no apparent effect on PAO1 swarming
Inhibition of PAO1 biofilm formation (surface attached) [3]: insignificant biofilm inhibition and no
Inhibition of PAO1 biofilm formation (surface attached) ([3]; listed as 2: DeβC, 160 µM): complete loss of anti-biofilm activity
Anti-biofilm activity (biofilm inhibition) [3]: did not show significant inhibition of PAO1 biofilm
Anti-biofilm activity (biofilm inhibition) ([3]; listed as DβC (2)): did not show anti-biofilm activities
PAO1-EGFP biofilm on stainless steel coupons (CLSM) [4]: bacterial surface coverage comparable to that of control
